According to patent publication US20150118221A1, “COMPOSITIONS AND METHODS FOR TREATING CARDIAC HYPERTROPHY” (THE JOHNS HOPKINS UNIVERSITY, priority 2012, published 2015):
“Also recorded” adds a separate entry of the source.

Experiments:
apoE−/− mice [1] = test: Histology of aorta and heart tissue (wall thickening, fibrosis, plaque accumulation); format: in vivo, mouse; details: FIG. 5
Excerpt: H&E, Masson's trichrome stained aorta and heart tissue was used for histological analysis for cardiovascular wall thickening and plaque accumulation.

apoE−/− mice [2] = test: Blood pressure, CODA tail cuff system; format: in vivo, mouse
Protocol: (§1) Aortic pulse wave velocity (PWV) was measured with mice placed supine under anesthesia with 1.5% isoflurane. An ECG-triggered, 2-mm, 10-MHz Doppler probe was used to measure blood flow at the thoracic and abdominal aorta. PWV was calculated by the thoracic-abdominal distance divided by the pulse transit time between the thoracic and abdominal measurement sites. Blood pressure was acquired using the CODA tail cuff system (Kent Scientific Co, USA) to measure systolic and diastolic pressure. Estimated the effect of mean pressure (MP(mmHg) on PWV (m/sec) was calculated using the following equation: PWVc=0.0006(MP)^2-0.0564MP+3.9711.

oxidized -LDL = test: Serum level of oxidized LDL in apoE−/− mice fed western diet; format: in vivo, mouse
[3] = system: hypertrophic marker, antioxidant and collagen gene mRNA; details: 10 mpk, left ventricular tissue
apoE−/− mice [4] = test: M-mode echocardiography (fractional shortening, LV mass, wall thickness) in apoE−/− mice on high fat and cholesterol diet; format: in vivo, mouse
Protocol: Apoliporotein E-deficient (ApoE (−/−), male aged 11 weeks were purchased from the Jackson Laboratory, Bar Harbor, Me. At the age of 12 weeks, the Apo E(−/−) mice were started on a high fat and high cholesterol diet (HFHC) consisting of 20% fat, and 1.25% cholesterol (D12108C, Research Diet Inc., New Brunswick, N.J.) for 20 to 36 weeks with and without treatment with D-PDMP (5 mg/kg, 10 mg/kg) and compared to control fed only chow diet and placebo mice fed HFHC+Vehicle (composed of 5% Tween-80 in phosphate buffered saline). Diet was rationed once a week to estimate the weekly growth rate and food intake. Physiological studies were performed around the age of 12, 20 and 36 weeks. Blood was drawn to prepare serum and heart tissues were harvested and studied at molecular and histopathological level. Tissues were harvested at 12, 20 and 36 weeks of age.
Animals were subject to physiological measurements, e.g., weight, blood pressure, ultra sound to measure fractional shortening (FS), left ventricular mass (LVM), heart weight to tibia length ratio, heart anatomy etc. A group of mice (N=5) were euthanized to obtain base line values for aorta and blood samples were collected. The rest of the mice were divided in to several groups. These were: Placebo (mice fed vehicle only (5% Tween-80 in phosphate buffered saline), 5 mpk D-PDMP solubilized in vehicle and 10 mpk D-PDMP solubilized in vehicle). Placebo and D-PDMP was delivered daily by oral gavage. The physiological measurements were repeated at 20 weeks and 36 week interval and then the mice were euthanized by asphyxia. This protocol was approved by the committee for research on animals at the Johns Hopkins University.
(§2) Trans-thoracic echocardiography was performed in conscious mice using the 2100 Visualsonic ultrasound device (Toronto, Ontario, Canada), and the Sequoia Acuson C256 (Malvern, Pa.) system, equipped with a 40 MHz and 15 MHz linear transducer, respectively. M-mode echocardiogram was obtained in the parasternal short axes view of the left ventricle (LV) at the level of the papillary muscles and at sweep speed of 200 mm/sec.
(§3) LV mass (mg): 1.055[(IVSD+LVEDD+PWTED)^3−(LVEDD)^3],

apoE−/− mice [5] = test: Ultrasound imaging of aortic intima media thickening (AoIMT); details: for aortic intima media thickening (AoIMT): 16 and 20 week old mice
p44MAPK = test: Western immunoblot of p44MAPK in heart tissue
[6] = system: lactosylceramide synthase; test: Lactosylceramide synthase activity in heart tissue of apoE−/− mice; format: in vivo, mouse; details: 5 mpk and 10 mpk, 20 weeks and 36 weeks
Protocol: (§4) Approximately 10 mg of heart tissue were homogenized in Tris buffer (pH 7.8) and centrifuged at 10,000 rpm for 10 min. The supernatant was used as a source for enzyme. [^3H]UDP-Gal (American Radiolabled company, St Louis, Mo.) served as the nucleotide sugar donor in LacCer synthase assay and [^3H]UDP-Glc served as the nucleotide sugar donor in GlcCer synthase assay. The details of these assays have been described previously. See Chatterjee, S., 311 METHODS IN ENZYMOLOGY 73-81 (2000). All assays were conducted in triplicate from 3 to 5 aorta samples from mice in each group.

glycosphingolipids [7] = test: HPLC analysis of glycosphingolipid levels in heart tissue, apoE−/− mice; format: in vivo, mouse
Protocol: (§5) Approximately 10 mg of heart tissue was homogenized in chloroform-methanol (2:1, v/v) and lipids were extracted. Bligh et al., 37.8 CAN. J. BIOCHEM. AND PHYSIOL. 911-17 (1959). The total lipid extracts were dried in nitrogen and subject to deacylation using sphingosine ceramide N-deacylation.

[8] = system: C57Bl-6 mice subject to trans-aortic constriction; test: M-mode echocardiography after trans-aortic constriction (TAC); format: in vivo, mouse; details: D-PDMP fed for a week before surgery, vs sham
Protocol: Normal male mice (C57B1-6), 11 weeks old, were also purchased from the Jackson Laboratory, Bar Harbor, Me.). After having measured the basal physiologic parameters such as blood pressure, weight, and ultra sound measurements, the 9 mice were divided as follows. Six mice were given 100 μL of vehicle (5% Tween-80 in phosphate—buffered saline) by oral gavage. The other three mice were fed 10 mpk of D-PDMP solubilized in vehicle. This procedure was continued for 7 days. Next, 3 mice in mice fed vehicle group and 3 mice fed D-PDMP were subject to trans-aortic constriction (Cingolani et al., 109 CIRC. RES. 00-00 (2011). At one week, two week and six weeks post-surgery, the mice were subjected to M mode ultrasound analysis. Finally, blood was drawn, and the animals were euthanized. The heart was excised, sliced in halves and its anatomy photographed.
as §2, §3

[9] = target: T1, glucosylceramide synthase (Mus musculus, UniProt O88693); test: Glucosylceramide synthase activity in heart tissue of apoE−/− mice; format: in vivo; details: 5 mpk and 10 mpk, 20 weeks and 36 weeks
T1 sequence (O88693 1-394): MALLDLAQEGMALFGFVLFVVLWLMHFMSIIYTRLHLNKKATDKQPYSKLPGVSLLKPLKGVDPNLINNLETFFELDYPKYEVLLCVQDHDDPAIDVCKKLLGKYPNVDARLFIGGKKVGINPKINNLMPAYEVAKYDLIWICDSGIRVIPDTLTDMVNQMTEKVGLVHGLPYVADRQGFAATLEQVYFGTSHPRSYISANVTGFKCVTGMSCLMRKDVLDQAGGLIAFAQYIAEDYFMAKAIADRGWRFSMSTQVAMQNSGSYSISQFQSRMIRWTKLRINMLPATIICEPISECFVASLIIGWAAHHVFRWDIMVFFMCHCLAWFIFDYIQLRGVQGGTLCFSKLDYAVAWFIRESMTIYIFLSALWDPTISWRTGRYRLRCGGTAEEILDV
Protocol: as §4

apoE−/− mice [10] = test: Aortic pulse wave velocity (PWV), arterial stiffness; format: in vivo, mouse; details: 10 mpk, compared to 5 mpk D-PDMP and placebo
Protocol: as §1

TGFβ = test: Western blot of TGFβ in left ventricular heart homogenates; format: in vivo, mouse; details: 5 mpk and 10 mpk
Protocol: FIG. 16. TGFβ over expression in hypertrophic mouse heart is mitigated by the use of D-PDMP. Left ventricular heart homogenates were prepared from placebo, 5 mpk and 10 mpk treated mouse hearts. Western blot analysis was done using anti TGFβ antibody. Expression levels of GAPDH were used to normalize the protein expression. Expression levels were quantified by using Image J v.1.45s (NIH, USA) software. (a) Western immunoblot of TGF-β. (b) Corresponding densitomeric scan.

[11] = cited from earlier work
[12] = system: lactosylceramide synthase; test: Lactosylceramide synthase activity in aorta tissue of D-PDMP-fed apoE−/− mice; details: hyperlipidemic diet; for decrease of LCS activity as compared to hyperlipidemic mouse aorta: 20 week old apoE−/− mice
[13] = target: T1, glucosylceramide synthase; test: Glucosylceramide synthase activity in aorta tissue of D-PDMP-fed apoE−/− mice; details: 5 and 10 mpk, hyperlipidemic diet, HCl
glycosphingolipids [14] = test: HPLC analysis of glycosphingolipid levels in heart tissue, TAC mice; format: in vivo, mouse; details: mice subject to trans-aortic constriction
Protocol: as §5

[15] = 20 Weeks, 10MPK D-PDMP + Fat, n = 5
[16] = TAC and Apo E−/− mice (high fat and cholesterol diet)
[17] = HCHF fed apoE−/− mice, to base line levels

CCCCCCCCCC(=O)N[C@H](CN1CCOCC1)[C@H](O)c1ccccc1.Cl [D-PDMP, D-threo-1-Phenyl-2-decanoylamino-3-morpholino-1-propanol HCl]
fibrosis (apoE−/− mice [1]): reduced | intimal wall thickness (apoE−/− mice [1]): reduced | plaque accumulation (apoE−/− mice [1]): reduced | Blood Pressure* (mmHg), lower value (marked ^ in Control row) (apoE−/− mice [2]; [15]): 75.8 ± 11.55 mmHg | Blood Pressure* (mmHg), upper value (marked ** in Control row) (apoE−/− mice [2]; [15]): 102.98 ± 12.34 mmHg | blood pressure (apoE−/− mice [2]; daily oral gavage, apoE−/− mice on high fat and cholesterol diet): reversed the blood pressure to normal level | increase of serum level of oxidized -LDL (about 4-fold on western diet) (oxidized -LDL): mitigated | Catalase mRNA expression level ([3]; TAC and Apo E−/− mice): induces | SOD1 mRNA expression level ([3]; TAC and Apo E−/− mice): induces | SOD2 mRNA expression level ([3]; TAC and Apo E−/− mice): induces | ANP mRNA expression level [3, 16]: blunted | BNP mRNA expression level [3, 16]: blunted | βMHC mRNA expression level [3, 16]: blunted | mRNA levels of collagen type II and III genes ([3]; TAC mice): decreased | IVSD and PWTED wall thickness at end diastolic phase (apoE−/− mice [4]; 5-MPK D-PDMP + fat, up to 20 weeks of age): thicker | Fractional shortening (FS %) of left ventricle (apoE−/− mice [4]; 5 MPK + fat, 16 and 20 weeks of age): significant decline | Fractional shortening (FS %) vs baseline and control (apoE−/− mice [4]; 10 MPK + fat, 16 and 20 weeks): did not significantly differ from the baseline and control | IVSD and PWTED wall thickness at end diastolic phase (hypertrophied wall) (apoE−/− mice [4]; 10 MPK + fat, up to 20 weeks of age): non hypertrophied | Fractional Shortening (%) (apoE−/− mice [4]; 20 Weeks, 10MPK D-PDMP + Fat, n = 5, Mean±SEM): 61.77 ± 1.69% | fractional shortening (apoE−/− mice [4]; [17]): dose-dependent reversal | left ventricular mass (apoE−/− mice [4]; [17]): dose-dependent reversal | heart hypertrophy and dysfunction (M mode ultrasound) (apoE−/− mice [4]; hyperlipidemic diet, dose dependent manner): complete protection | aortic intima media thickening (AoIMT) (apoE−/− mice [5]; 5 MPK + fat): progressively increased | aortic intima media thickening (AoIMT) (apoE−/− mice [5]; 10 MPK + fat): did not change | increase in aortic intima media thickening (IMT) caused by hyperlipidemic diet (apoE−/− mice [5]; dose not stated): reversed | level of phosphorylated p44MAPK in heart tissue (p44MAPK; 10 mpk, vs placebo): decrease | phosphorylation of p44MAPK in heart tissue (p44MAPK; both animal models (apoE−/− and TAC)): mitigated | activity of lactosylceramide synthase in heart tissue [6]: dose-dependently decreased | mass of glycosphingolipids in heart tissue (glycosphingolipids [7]): inhibits | fractional shortening [8]: completely reversed | left ventricular mass [8]: completely reversed | activity of glucosylceramide synthase in heart tissue [9]: dose-dependently decreased | arterial stiffness (PWV) (apoE−/− mice [10]): reduces | TGFβ over expression in hypertrophic mouse heart (TGFβ): mitigated | solubility in water [11]: soluble in water | activity of lactosylceramide synthase in aorta tissue ([12]; 5 and 10 mpk, apoE−/− mice, HCl): dose-dependently decreased; also recorded: completely prevented | decrease of LCS activity as compared to hyperlipidemic mouse aorta ([12]; 5 mpk D-PDMP): ~52% | decrease of LCS activity as compared to hyperlipidemic mouse aorta ([12]; 10 mpk D-PDMP): ~32% | activity of glucosylceramide synthase in aorta tissue [13]: dose-dependent decrease in glucosylceramide synthase activity was not observed; also recorded: completely prevented; also recorded: decreased | level of glycosphingolipids (glycosphingolipids [14]): decreases

CCCCN1C[C@H](O)[C@@H](O)[C@H](O)[C@H]1CO [NB-DNJ, 1,5-(butylimino)-1,5-dideoxy-D-glucitol]
solubility in water [11]: soluble in water
